# In patent US20040063662A1, “Selenophene anti-tumor agents” (priority 1996, published 2004):
# Experiments:
# CCRF-CEM = experiment: NCI human tumor cell panel: CCRF-CEM (Leukemia); format: cell-based
# A549/ATCC = experiment: NCI human tumor cell panel: A549/ATCC (Non-Small Cell Lung Cancer); format: cell-based
# OVCAR-8 = experiment: NCI human tumor cell panel: OVCAR-8 (Ovarian Cancer); format: cell-based
# EKVX = experiment: NCI human tumor cell panel: EKVX (Non-Small Cell Lung Cancer); format: cell-based
# HCT-116 = experiment: NCI human tumor cell panel: HCT-116 (Colon Cancer); format: cell-based
# U251 = experiment: NCI human tumor cell panel: U251 (CNS Cancer); format: cell-based
# HOP-92 = experiment: NCI human tumor cell panel: HOP-92 (Non-Small Cell Lung Cancer)
# UACC-62 = experiment: NCI human tumor cell panel: UACC-62 (Melanoma); format: cell-based
# MOLT-4 = experiment: NCI human tumor cell panel: MOLT-4 (Leukemia); format: cell-based
# PC-3 = experiment: NCI human tumor cell panel: PC-3 (Prostate Cancer); format: cell-based
# MALME-3M = experiment: NCI human tumor cell panel: MALME-3M (Melanoma); format: cell-based; conditions: Malme-3M
# SF-539 = experiment: NCI human tumor cell panel: SF-539 (CNS Cancer); format: cell-based
# SF-295 = experiment: NCI human tumor cell panel: SF-295 (CNS Cancer); format: cell-based
# OVCAR-3 = experiment: NCI human tumor cell panel: OVCAR-3 (Ovarian Cancer); format: cell-based
# HOP-62 = experiment: NCI human tumor cell panel: HOP-62 (Non-Small Cell Lung Cancer); format: cell-based
# OVCAR-4 = experiment: NCI human tumor cell panel: OVCAR-4 (Ovarian Cancer); format: cell-based
# HCT-15 = experiment: NCI human tumor cell panel: HCT-15 (Colon Cancer); format: cell-based
# RPMI-8226 = experiment: NCI human tumor cell panel: RPMI-8226 (Leukemia); format: cell-based
# NCI-H23 = experiment: NCI human tumor cell panel: NCI-H23 (Non-Small Cell Lung Cancer); format: cell-based; conditions: NCI-H23, read-out: Log10 GI50 (converted)
# SW-620 = experiment: NCI human tumor cell panel: SW-620 (Colon Cancer); format: cell-based
# DU-145 = experiment: NCI human tumor cell panel: DU-145 (Prostate Cancer); format: cell-based
# SNB-19 = experiment: NCI human tumor cell panel: SNB-19 (CNS Cancer); format: cell-based
# 786-0 = experiment: NCI human tumor cell panel: 786-0 (Renal Cancer); format: cell-based
# UO-31 = experiment: NCI human tumor cell panel: UO-31 (Renal Cancer); format: cell-based
# MDA-N = experiment: NCI human tumor cell panel: MDA-N (Breast Cancer); format: cell-based
# NCI-H522 = experiment: NCI human tumor cell panel: NCI-H522 (Non-Small Cell Lung Cancer)
# HT29 = experiment: NCI human tumor cell panel: HT29 (Colon Cancer); format: cell-based
# LOX IMVI = experiment: NCI human tumor cell panel: LOX IMVI (Melanoma); format: cell-based
# [1] = read-out: Log10 GI50 (converted)
# [2] = read-out: Log10 TGI (converted)
structure (smiles),measurement,setting,value
OCc1ccc(-c2ccc(-c3ccc[se]3)[se]2)[se]1 [compound 675246],GI50,CCRF-CEM; [1],3.16 µM
same,IC (TGI),CCRF-CEM; [2],12.3 µM
same,GI50,A549/ATCC; [1],10.5 µM
same,IC (TGI),A549/ATCC; [2],22.4 µM
same,GI50,"OVCAR-8; OVCAR-8, read-out: Log10 GI50 (converted)",5.01 µM
same,IC (TGI),"OVCAR-8; OVCAR-8, read-out: Log10 TGI (converted)",33.1 µM
same,GI50,EKVX; [1],5.5 µM
same,IC (TGI),EKVX; [2],17.4 µM
same,GI50,"HCT-116; HCT-116, read-out: Log10 GI50 (converted)",0.0646 µM
same,IC (TGI),"HCT-116; HCT-116, read-out: Log10 TGI (converted)",10.7 µM
same,GI50,"U251; U-251, U251, read-out: Log10 GI50 (converted)",0.0708 µM
same,IC (TGI),"U251; U-251, U251, read-out: Log10 TGI (converted)",12.3 µM
same,GI50,"HOP-92; HOP-92, read-out: Log10 GI50 (converted)",2.63 µM
same,IC (TGI),"HOP-92; HOP-92, read-out: Log10 TGI",11.2 µM
same,GI50,"UACC-62; UACC-62, read-out: Log10 GI50 (converted)",0.0102 µM
same,IC (TGI),"UACC-62; UACC-62, read-out: Log10 TGI (converted)",11.2 µM
same,GI50,"MOLT-4; MOLT-4, read-out: Log10 GI50 (converted)",3.24 µM
same,IC (TGI),"MOLT-4; MOLT-4, read-out: Log10 TGI (converted)",12 µM
same,GI50,"PC-3; PC-3, read-out: Log10 GI50 (converted)",3.8 µM
same,IC (TGI),"PC-3; PC-3, read-out: Log10 TGI (converted)",13.2 µM
same,GI50,MALME-3M; [1],6.17 µM
same,IC (TGI),MALME-3M; [2],19.5 µM
same,GI50,"SF-539; SF-539, read-out: Log10 GI50 (converted)",12.3 µM
same,IC (TGI),"SF-539; SF-539, read-out: Log10 TGI (converted)",25.1 µM
same,GI50,"SF-295; SF-295, read-out: Log10 GI50 (converted)",10.7 µM
same,IC (TGI),"SF-295; SF-295, read-out: Log10 TGI (converted)",27.5 µM
same,GI50,"OVCAR-3; OVCAR-3, read-out: Log10 GI50 (converted)",0.0603 µM
same,IC (TGI),"OVCAR-3; OVCAR-3, read-out: Log10 TGI (converted)",1.29 µM
same,GI50,"HOP-62; HOP-62, read-out: Log10 GI50 (converted)",7.24 µM
same,IC (TGI),"HOP-62; HOP-62, read-out: Log10 TGI (converted)",20.4 µM
same,GI50,"OVCAR-4; OVCAR-4, read-out: Log10 GI50 (converted)",0.575 µM
same,IC (TGI),"OVCAR-4; OVCAR-4, read-out: Log10 TGI (converted)",12.3 µM
same,GI50,"HCT-15; HCT-15, read-out: Log10 GI50 (converted)",4.27 µM
same,IC (TGI),"HCT-15; HCT-15, read-out: Log10 TGI (converted)",17.8 µM
same,GI50,"RPMI-8226; RPMI-8226, read-out: Log10 GI50 (converted)",7.41 µM
same,IC (TGI),"RPMI-8226; RPMI-8226, read-out: Log10 TGI",> 100 µM
same,GI50,NCI-H23,13.2 µM
same,GI50,"SW-620; SW-620, read-out: Log10 GI50 (converted)",0.417 µM
same,IC (TGI),"SW-620; SW-620, read-out: Log10 TGI (converted)",10.2 µM
same,GI50,"DU-145; DU-145, read-out: Log10 GI50 (converted)",10.2 µM
same,IC (TGI),"DU-145; DU-145, read-out: Log10 TGI (converted)",21.9 µM
same,GI50,"SNB-19; SNB-19, read-out: Log10 GI50 (converted)",12.3 µM
same,IC (TGI),"SNB-19; SNB-19, read-out: Log10 TGI (converted)",52.5 µM
same,GI50,"786-0; 786-0, read-out: Log10 GI50 (converted)",2.19 µM
same,IC (TGI),"786-0; 786-0, read-out: Log10 TGI (converted)",5.25 µM
same,GI50,"UO-31; UO-31, read-out: Log10 GI50 (converted)",6.17 µM
same,IC (TGI),"UO-31; UO-31, read-out: Log10 TGI (converted)",38.9 µM
same,GI50,MDA-N; [1],9.77 µM
same,IC (TGI),MDA-N; [2],56.2 µM
same,GI50,"NCI-H522; NCI-H522, read-out: Log10 GI50 (converted)",2.45 µM
same,IC (TGI),"NCI-H522; NCI-H522, read-out: Log10 TGI",6.61 µM
same,GI50,"HT29; HT-29, HT29, read-out: Log10 GI50 (converted)",0.851 µM
same,IC (TGI),"HT29; HT-29, HT29, read-out: Log10 TGI (converted)",10.7 µM
same,GI50,LOX IMVI; [1],3.63 µM
same,IC (TGI),LOX IMVI; [2],9.77 µM
